Results published in patent US9970938B2, “Use of BUBR1 as a biomarker of drug response to furazanobenzimidazoles” (Basilea Pharmaceutica AG, priority 2011, dated 2018).

Assays:
Assay type in all cases: cell-based, human
[1] = test system: A549; assay: Crystal Violet assay of BAL27862-resistant cell line versus parental line
From the text: (§1) BAL27862-resistant sublines of human non-small cell lung cancer (H460 ATCC reference HTB-177; A549 ATCC reference CCL-185), ovarian cancer (SKOV3 ATCC reference HTB-77) lines were generated by long-term selection in complete cell culture medium (RPMI-1640 containing 10% FCS; Sigma-Aldrich) by stepwise increasing concentrations of BAL27862. […] The resistant sublines were expanded at the highest tolerated BAL27862 concentration and subsequently frozen and stored in liquid nitrogen.
(§2) After medium was removed, cells were fixed and stained by adding 50 μl Crystal Violet Staining (0.2% Crystal Violet in 50% Methanol) per well. Plates were incubated for 1 hour at room temperature. Subsequently the stain was decanted and plates were washed 4 times with double-distilled water. Plates were air-dried for several hours. Stain was dissolved by adding 100 μl buffer (0.1 M Tris pH 7.5, 0.2% SDS, 20% Ethanol) per well and shaking the plates. Absorbance at 590 nm was measured using a SpectraMax M2e plate reader (Molecular Devices). Anti-proliferative IC50 values were calculated from concentration response curves using GraphPad Prism software. Resistance factors were calculated as a ratio of BAL27862 IC50 in the resistant line variant versus the IC50 in the parental line.

[2] = test system: H460; assay: as above
From the text: as §1, §2

[3] = test system: SKOV3 resistant 1; assay: as above
From the text: as §1, §2

[4] = test system: SKOV3 resistant 2; assay: as above
From the text: as §1, §2

[5] = test system: GXF251; assay: Colony outgrowth assay, patient-derived tumour xenograft cells; parameters: key: S: BAL27862-sensitive tumour cells have IC70 values in the low nanomolar range; R: BAL27862-resistant tumour cells are defined by IC70 values >600 nanomolar; conditions: Gastric
Method: (§3) Single cell suspensions of patient-derived tumour xenografts (maintained in nude mice) were prepared. For colony outgrowth assays, cells were plated in soft agar in 24-well plates according to the assay introduced by Hamburger & Salmon (Primary bioassay of human tumour stem cells, Science, 1977, 197:461-463). 2.0E+04-6.0E+04 cells in 0.2 mL medium containing 0.4% agar were plated out on a bottom layer of 0.75% agar. Test compounds were applied in 0.2 mL culture medium. Every 24-well plate contained untreated controls and samples in triplicates. Cultures were incubated at 37° C. and 7.5% CO2 for 5-28 days. 24 hours prior to analysis, vital colonies were stained with a solution of metabolizable tetrazolium salt (Alley M C et al, Life Sci. 1982, 31:3071-3078) and were counted with an automatic image analysis system (Omnicon 3600, Biosys GmbH).
(§4) Relative drug effects were expressed by the ratio of the mean number of colonies in the treated wells and the control wells. IC70-values were determined by plotting compound concentrations versus relative colony counts.

[6] = test system: GXF97; assay: as above; parameters: key: S: BAL27862-sensitive tumour cells have IC70 values in the low nanomolar range; R: BAL27862-resistant tumour cells are defined by IC70 values >600 nanomolar; conditions: Gastric
Method: as §3, §4

[7] = test system: LXFA629; assay: as above; parameters: key: S: BAL27862-sensitive tumour cells have IC70 values in the low nanomolar range; R: BAL27862-resistant tumour cells are defined by IC70 values >600 nanomolar; conditions: Lung
Method: as §3, §4

[8] = test system: LXFL529; assay: as above; parameters: key: S: BAL27862-sensitive tumour cells have IC70 values in the low nanomolar range; R: BAL27862-resistant tumour cells are defined by IC70 values >600 nanomolar; conditions: Lung
Method: as §3, §4

[9] = test system: A549 NSCLC cells; assay: Immunofluorescent staining of microtubules in cultured cells
Method: (§5) A549 human non-small cell lung cancer (NSCLC, ATCC reference number CCL-185) cells, HeLa cervical cancer cells (ATCC reference number CCL-2) and SKBR3 breast carcinoma cells (ATCC reference number HTB-30) were seeded at densities of 50% on round microscope coverslips and cultured for 24 hours in RPMI-1640 containing 10% FCS (also referred to as FBS) at 37° C., 5% CO2. Compounds to be tested were dissolved in DMSO. The cell culture medium was replaced with medium containing the diluted compound(s) (paclitaxel, vinblastine, colchicine and nocodazole were purchased from Sigma-Aldrich) or vehicle. After treatment, coverslips were washed and cells were fixed in methanol/acetone (1:1) for 5 minutes at room temperature and subsequently incubated in blocking buffer (0.5% BSA and 0.1% TX-100 in PBS) for 30 minutes at room temperature. Specimens were then incubated with anti-alpha-tubulin antibody (Sigma, 1:2000) for 1 hour at room temperature in blocking buffer. After several washing steps cells were incubated with AlexaFluor-488 goat-anti-mouse IgG (Molecular Probes, 1:3000) for 1 hour at room temperature followed by several washing steps with blocking buffer. Specimens were then mounted with ProLong Gold antifade (Molecular Probes), sealed with nail polish and examined with a Leica immunofluorescence microscope. Images were captured with a cooled CCD-camera and processed by ImageJ software.

[10] = test system: HeLa cervical cancer cells; assay: as above; conditions: 24 hours, 50 nM
Method: as §5

[11] = test system: SKBR3 breast cancer cells; assay: as above; conditions: 24 hours, 50 nM
Method: as §5

SMILES: N#CCCNc1nonc1-c1nc2ccccc2n1CC(=O)c1ccc(N)cc1 [BAL27862, 3-(4-{1-[2-(4-Amino-phenyl)-2-oxo-ethyl]-1H-benzoimidazol-2-yl}-furazan-3-ylamino)-propionitrile]
- resistance factors versus parental lines (based on IC50 determinations) [1]: 3.0 fold
- resistance factors versus parental lines (based on IC50 determinations) [2]: 5.3 fold
- resistance factors versus parental lines (based on IC50 determinations) [3]: 7.6 fold
- resistance factors versus parental lines (based on IC50 determinations) [4]: 11.6 fold
- Sensitive (S)/Resistant (R), by IC70 in colony outgrowth [5]: S
- Sensitive (S)/Resistant (R), by IC70 in colony outgrowth [6]: R (BAL27862-resistant tumour cells are defined by IC70 values >600 nanomolar)
- Sensitive (S)/Resistant (R), by IC70 in colony outgrowth [7]: R (BAL27862-resistant tumour cells are defined by IC70 values >600 nanomolar)
- Sensitive (S)/Resistant (R), by IC70 in colony outgrowth [8]: S
- microtubule phenotype of mitotic or G2/M arrested cells ([9]; 24 hours treatment, anti-alpha-tubulin staining): highly reproducible and distinct microtubule phenotype
- microtubule phenotype, BAL27862 added for the last 4 hours of 24 hours vinblastine, colchicine, paclitaxel or nocodazole treatment ([9]; combination): disruption of the microtubule structures
- microtubule phenotype of mitotic or G2/M arrested cells [10]: highly reproducible and distinct microtubule phenotype
- microtubule phenotype of mitotic or G2/M arrested cells [11]: highly reproducible and distinct microtubule phenotype
